Results published in patent publication US10577373B2, “TYK2 inhibitors and uses thereof” (Nimbus Lakshmi, Inc., priority 2017, dated 2020).
Where two headings read alike, the source gives them in different places.

Experiments:
[1] = system: IL-12 induced STAT4 phophorylation mediated by Tyk2/JAK2 (heterodimeric complex); experiment: IL-12 Induced pSTAT4 in Human PBMC; type: cell-based; details: 1.7 ng/mL IL-12
Description: The IL-12 Induced pSTAT4 assay evaluates the inhibition of IL-12 induced STAT4 phophorylation mediated by Tyk2/JAK2 (heterodimeric complex).

[2] = system: GM-CSF induced STAT5 phosphorylation mediated by the JAK2/JAK2 homdimeric complex; experiment: GM-CSF Induced pSTAT5 in Human PBMC
Description: Human PBMC are isolated from buffy coat and are stored frozen for assays as needed.

[3] = Homo sapiens, PBMC, 20 min, read-out: PBMC_GMCSF_pSTAT5 IC50, human PBMC, GM-CSF 5 ng/mL for 20 minutes, pSTAT5
[4] = read-out: PBMC_GMCSF_pSTAT5 IC50, human PBMC, GM-CSF 5 ng/mL for 20 minutes, pSTAT5

SMILES | IC50 [1] [nM] | IC50 [2, 3] [µM] | IC50 ([2]; Homo sapiens, PBMC, 20 min, read-out: PBMC_GMCSF_pSTAT5 IC50) [µM] | IC50 [2, 4] [µM]
CNc1cc(Nc2cccnc2OC)nc2c(C(=O)N[C@H]3C[C@@H]3O)cnn12 [I-438, N-((1S,2S)-2-hydroxycyclopropyl)-5-((2-methoxypyridin-3-yl)amino)-7-(methylamino)pyrazolo[1,5-a]pyrimidine-3-carboxamide] | < 100 | > 50 |  | 
CNc1cc(Nc2cccn([C@@H]3CCCOC3)c2=O)nc2c(C(=O)N[C@@H]3C[C@@H]3F)cnn12 [I-474] | < 100 | > 12.5 |  | 
CNc1cc(Nc2cccnc2OC)nc2c(C(=O)NC[C@H](C)CO)cnn12 [I-483] | < 100 | > 50 |  | 
[2H]C([2H])([2H])Oc1ncccc1Nc1cc(NC)n2ncc(C(=O)N[C@@H]3CCC[C@@H](O)C3)c2n1 [I-499] | < 100 | > 50 |  | 
[2H]C([2H])([2H])Oc1ncccc1Nc1cc(NC)n2ncc(C(=O)N[C@H]3CC[C@H](O)C3)c2n1 [I-500] | < 100 | > 50 |  | 
CNc1cc(Nc2cccn(-c3ncccc3F)c2=O)nc2c(C(=O)NCC(C)(C)CO)cnn12 [I-510] | < 100 | > 50 |  | 
CNc1cc(Nc2cccc(C3CCCOC3)n2)nc2c(C(=O)N[C@@H]3C[C@@H]3F)cnn12 (stereo partly shown) [I-522] | < 100 | > 50 |  | 
CNc1cc(Nc2cccn([C@H]3CC[C@H](OC)CC3)c2=O)nc2c(C(=O)N[C@H]3CC[C@H]3O)cnn12 [I-539] | < 100 | > 50 |  | 
CNc1cc(Nc2cccn([C@H]3CC[C@H](OC)CC3)c2=O)nc2c(C(=O)N[C@H]3CC[C@@H]3O)cnn12 [I-540] | < 100 | > 12.5 |  | 
CNc1cc(Nc2cccn([C@H]3CC[C@H](OC)CC3)c2=O)nc2c(C(=O)NCC(C)(C)CO)cnn12 [I-544] | < 100 | > 2.5 |  | 
CNc1cc(Nc2cccn([C@H]3CC[C@H](OC)CC3)c2=O)nc2c(C(=O)NCC3(CO)CC3)cnn12 [I-545] | 100 to 500 | > 2.5 |  | 
CNc1cc(Nc2cccnc2OC2CC2)nc2c(C(=O)N[C@H]3COC[C@H]3O)cnn12 [I-547] | 100 to 500 | > 50 |  | 
CNc1cc(Nc2cccn(C3CC4(COC4)C3)c2=O)nc2c(C(=O)N[C@@H]3C[C@@H]3F)cnn12 [I-551, N-((1R,2S)-2-fluorocyclopropyl)-7-(methylamino)-5-((2-oxo-1-(2-oxaspiro[3.3]heptan-6-yl)-1,2-dihydropyridin-3-yl)amino)pyrazolo[1,5-a]pyrimidine-3-carboxamide] | < 100 | > 2.5 |  | 
CNc1cc(Nc2cc(F)cn([C@H]3CCCOC3)c2=O)nc2c(C(=O)N[C@H]3C[C@H]3F)cnn12 [I-559] | < 100 | > 50 |  | 
CNc1cc(Nc2cccn([C@H]3CC[C@H](OC)CC3)c2=O)nc2c(C(=O)N[C@@H]3CC[C@@H]3O)cnn12 [I-560] | < 100 | > 2.5 |  | 
CNc1cc(Nc2cccc([C@@H]3CCCOC3)n2)nc2c(C(=O)N[C@H]3C[C@H]3F)cnn12 [I-562] | < 100 | > 50 |  | 
CNc1cc(Nc2cccc([C@H]3CCCOC3)n2)nc2c(C(=O)N[C@H]3C[C@H]3F)cnn12 [I-563] | < 100 | > 50 |  | 
CNc1cc(Nc2cccn(C3CCN(CCF)CC3)c2=O)nc2c(C(=O)N[C@H]3C[C@H]3F)cnn12 [I-570] | < 100 | > 50 |  | 
CNc1cc(-c2cn(C(C)C)c3ncccc23)nc2c(C(=O)N[C@@H]3CC[C@@H]3O)cnn12 [I-578] | < 100 | > 50 |  | 
CNc1cc(-c2cn(CCN3CCCCC3)c3ncccc23)nc2c(C(=O)N[C@H]3C[C@H]3F)cnn12 [I-585] | < 100 | > 12.5 |  | 
CNc1cc(Nc2cccc(N3CCOCC3)n2)nc2c(C(=O)N[C@H]3C[C@H]3F)cnn12 [I-590] | < 100 | > 12.5 |  | 
CNc1cc(Nc2cccc3ocnc23)nc2c(C(=O)NC3CC3)cnn12 [I-591] | < 100 | > 12.5 |  | 
CNc1cc(Nc2cccc3ocnc23)nc2c(C(=O)N[C@H]3C[C@H]3F)cnn12 [I-592] | < 100 | > 12.5 |  | 
CNc1cc(Nc2cccc([C@@H]3CCCOC3)n2)nc2c(C(=O)N[C@H]3CC[C@@H]3O)cnn12 [I-603] | < 100 | > 2.5 |  | 

SMILES | IC50 [1] [nM] | IC50 [2, 3] [µM] | IC50 ([2]; Homo sapiens, PBMC, 20 min, read-out: PBMC_GMCSF_pSTAT5 IC50) [µM] | IC50 [2, 4] [µM]
CNc1cc(Nc2cccn(-c3cn(C)nc3F)c2=O)nc2c(C(=O)NC3CC3)cnn12 [I-606] | 100 to 500 | > 12.5 |  | 
CNc1cc(Nc2cccn(-c3cn(C)nc3F)c2=O)nc2c(C(=O)N[C@H]3C[C@H]3F)cnn12 [I-607] | < 100 | > 50 |  | 
CNc1cc(Nc2cccnc2OC)nc2c(C(=O)NOC(C)(C)C)cnn12 [I-612, N-(tert-butoxy)-5-((2-methoxypyridin-3-yl)amino)-7-(methylamino) pyrazolo[1,5-a]pyrimidine-3-carboxamide] | […] |  | > 50 | 
CNc1cc(Nc2cccn([C@@H]3CCC[C@H](OC)C3)c2=O)nc2c(C(=O)NC3CC3)cnn12 [I-621] | < 100 | > 50 |  | 
CNc1cc(-c2cn(C(C)C)c3ncccc23)nc2c(C(=O)N[C@H]3C[C@H](O)C3)cnn12 [I-630, N-((1r,3r)-3-hydroxycyclobutyl)-5-(1-isopropyl-1H-pyrrolo[2,3-b]pyridin-3-yl)-7-(methylamino)pyrazolo[1,5-a]pyrimidine-3-carboxamide] | < 100 | > 2.5 |  | 
CNc1cc(Nc2cccn([C@H]3CC[C@H](OC)CC3)c2=O)nc2c(C(=O)N[C@@H]3CC[C@H]3O)cnn12 [I-635] | < 100 | > 50 |  | 
CNc1cc(-c2cn(C(C)C)c3ncccc23)nc2c(C(=O)N[C@H]3CC[C@H]3O)cnn12 [I-637] | < 100 | > 12.5 |  | 
CNc1cc(-c2cn(C(C)C)c3ncccc23)nc2c(C(=O)N[C@H]3CC[C@@H]3O)cnn12 [I-639] | < 100 |  |  | > 12.5
CNc1cc(-c2cn(C(C)C)c3ncccc23)nc2c(C(=O)N[C@@H]3CC[C@H]3O)cnn12 [I-640] | < 100 | > 12.5 |  | 
CNc1cc(Nc2cccc3ocnc23)nc2c(C(=O)N[C@@H]3CC[C@@H]3O)cnn12 [I-661] | < 100 |  |  | > 12.5
CNc1cc(Nc2cccc([C@@H]3CCCOC3)n2)nc2c(C(=O)N[C@@H]3CC[C@H]3O)cnn12 [I-665] | < 100 | > 2.5 |  | 
CNc1cc(Nc2cccc([C@H]3CCCOC3)n2)nc2c(C(=O)N[C@@H]3CC[C@H]3O)cnn12 [I-667] | < 100 | > 12.5 |  | 
CNc1cc(Nc2cccn([C@H]3CC[C@](C)(OC)CC3)c2=O)nc2c(C(=O)N[C@@H]3CC[C@@H]3O)cnn12 [I-670, N-(2-hydroxycyclobutyl)-5-((1-((1R,4S)-4-methoxy-4-methylcyclohexyl)-2-oxo-1,2-dihydropyridin-3-yl)amino)-7-(methylamino)pyrazolo[1,5-a]pyrimidine-3-carboxamide] | < 100 |  |  | > 50
CNc1cc(Nc2cccn(-c3ncc(OC)cc3F)c2=O)nc2c(C(=O)N[C@H]3C[C@H]3F)cnn12 [I-673] | < 100 | > 50 |  | 
CNc1cc(Nc2cccn(-c3ncc(C)s3)c2=O)nc2c(C(=O)N[C@@H]3CC[C@@H]3O)cnn12 [I-677] | < 100 |  |  | > 2.5
CNc1cc(Nc2cccn(-c3ccccn3)c2=O)nc2c(C(=O)NC3CC3)cnn12 [I-680] | < 100 | > 12.5 |  | 
CNc1cc(Nc2cccn(-c3ccccn3)c2=O)nc2c(C(=O)N[C@H]3C[C@H]3F)cnn12 [I-681] | < 100 | > 12.5 |  | 
CNc1cc(Nc2cc(Cl)cn(C3CCCOC3)c2=O)nc2c(C(=O)N[C@H]3C[C@H]3F)cnn12 (stereo partly shown) [I-693] | < 100 | > 50 |  | 
CNc1cc(Nc2cccn(-c3nc(C)co3)c2=O)nc2c(C(=O)N[C@@H]3CC[C@@H]3O)cnn12 [I-706] | < 100 | > 50 |  | 
CNc1cc(Nc2cccc(N3CCC34COC4)n2)nc2c(C(=O)N[C@H]3C[C@H]3F)cnn12 [I-709] | < 100 | > 50 |  | 
CNc1cc(Nc2cccnc2OC)nc2c(C(=O)NO)cnn12 [I-710, N-hydroxy-5-((2-methoxypyridin-3-yl)amino)-7-(methylamino)pyrazolo[1,5-a]pyrimidine-3-carboxamide] | 100 to 500 | > 50 |  | 
CNc1cc(Nc2cc(Cl)cn(C3CCCOC3)c2=O)nc2c(C(=O)NC3CC3)cnn12 (stereo not shown) [I-711] | < 100 | > 50 |  | 
CNc1cc(Nc2cc(Cl)cn(C3CCOCC3)c2=O)nc2c(C(=O)N[C@H]3CC[C@@H]3O)cnn12 [I-712] | < 100 | > 12.5 |  | 
